Data published in US20230090982A1, “DRUG FOR TREATING C[…] […] […] C” (priority 2020, published 2023).
Read-outs that look alike come from different tables or passages of the source.

Legend:
[1] = in water, alcohol; cited from earlier work
[2] = tested on: HeLa cervical adenocarcinoma cells
Method: (§1) The radioactivity of the samples was measured on a Tri-Carb 2800 TR (3-counter (PerkinElmer, USA) in an ULTIMA GOLD LLT scintillator (Perkin Elmer, USA). An aliquot of the sample (0.1 mL) was thoroughly mixed with the scintillator (0.9 mL) and the radioactivity was measured within no more than 2 h after the mixture was prepared.
(§2) Cells were cultured on the surface of 48-well polystyrene plates.
(§3) Primary human gingival fibroblasts and cervical adenocarcinoma HeLa cells were used as cell cultures. Cells were cultured in IMDM culture medium supplemented with 10% fetal bovine serum and an antibiotic (penicillin and streptomycin) in an atmosphere of 6% CO2, at 37° C.
(§4) During the experiment, the cells were placed into 48-well polystyrene plates with a well diameter of 1 cm, in the amount of 12 thousand cells per well, in triplicate for each type of sample (in 0.5 ml of culture medium). […] The cell suspension was sedimented by centrifugation at 800 g for 10 min, and aliquots were taken from the trypsin supernatant. The cell precipitation was resuspended in 220 μl of saline and 2 aliquots of 100 μl were taken to measure the radioactivity of the samples.

[3] = tested on: Primary human gingival fibroblasts
Method: as §1, §2, §3, §4

[4] = 0.074% formaldehyde diluted in culture medium, compared with 0.11% formaldehyde solution
[5] = 0.074% formaldehyde in saline, compared with incubation in 0.11% formaldehyde solution
[6] = incubation in culture medium, added formaldehyde 0.00056%
[7] = incubation in culture medium, added formaldehyde 0.0028%
[8] = incubation in culture medium, added formaldehyde 0.014%
[9] = incubation in culture medium, added formaldehyde 0.074%
[10] = incubation in culture medium, added formaldehyde 0.11%
[11] = incubation in saline, added formaldehyde 0.00056%
[12] = incubation in saline, added formaldehyde 0.0028%
[13] = incubation in saline, added formaldehyde 0.014%
[14] = incubation in saline, added formaldehyde 0.074%
[15] = incubation in saline, added formaldehyde 0.11%

C=O [formaldehyde]
solubility [1]: well dissolve in water, alcohol
activation of the production of endogenous formaldehyde [2, 4]: 30.2%
activation of the production of endogenous formaldehyde [2, 5]: 32%
Formaldehyde accumulation, Cells, % of what added [2, 6]: 0.28 ± 0.03 % of what added
Formaldehyde accumulation, Trypsin eluate, % of what added [2, 6]: 0.20 ± 0.02 % of what added
Formaldehyde accumulation, Cells, % of what added [2, 7]: 0.64 ± 0.13 % of what added
Formaldehyde accumulation, Trypsin eluate, % of what added [2, 7]: 0.45 ± 0.06 % of what added
Formaldehyde accumulation, Cells, % of what added [2, 8]: 1.52 ± 0.09 % of what added
Formaldehyde accumulation, Trypsin eluate, % of what added [2, 8]: 1.92 ± 0.11 % of what added
Formaldehyde accumulation, Cells, % of what added [2, 9]: 2.75 ± 0.18 % of what added
Formaldehyde accumulation, Trypsin eluate, % of what added [2, 9]: 2.54 ± 0.14 % of what added
Formaldehyde accumulation, Cells, % of what added [2, 10]: 1.92 ± 0.16 % of what added
Formaldehyde accumulation, Trypsin eluate, % of what added [2, 10]: 1.83 ± 0.12 % of what added
Formaldehyde accumulation, Cells, % of what added [2, 11]: 0.62 ± 0.04 % of what added
Formaldehyde accumulation, Trypsin eluate, % of what added [2, 11]: 0.57 ± 0.04 % of what added
Formaldehyde accumulation, Cells, % of what added [2, 12]: 1.34 ± 0.05 % of what added
Formaldehyde accumulation, Trypsin eluate, % of what added [2, 12]: 2.14 ± 0.08 % of what added
Formaldehyde accumulation, Cells, % of what added [2, 13]: 2.65 ± 0.11 % of what added
Formaldehyde accumulation, Trypsin eluate, % of what added [2, 13]: 3.44 ± 0.19 % of what added
Formaldehyde accumulation, Cells, % of what added [2, 14]: 2.75 ± 0.18 % of what added
Formaldehyde accumulation, Trypsin eluate, % of what added [2, 14]: 3.32 ± 0.27 % of what added
Formaldehyde accumulation, Cells, % of what added [2, 15]: 1.85 ± 0.25 % of what added
Formaldehyde accumulation, Trypsin eluate, % of what added [2, 15]: 2.41 ± 0.11 % of what added
activation of the production of endogenous formaldehyde [3, 4]: 20.6%
activation of the production of endogenous formaldehyde [3, 5]: 18.4%
Formaldehyde accumulation, Cells, % of what added [3, 6]: 0.25 ± 0.02 % of what added
Formaldehyde accumulation, Trypsin eluate, % of what added [3, 6]: 0.23 ± 0.03 % of what added
Formaldehyde accumulation, Cells, % of what added [3, 7]: 0.55 ± 0.07 % of what added
Formaldehyde accumulation, Trypsin eluate, % of what added [3, 7]: 0.56 ± 0.16 % of what added
Formaldehyde accumulation, Cells, % of what added [3, 8]: 1.25 ± 0.13 % of what added
Formaldehyde accumulation, Trypsin eluate, % of what added [3, 8]: 1.36 ± 0.15 % of what added
Formaldehyde accumulation, Cells, % of what added [3, 9]: 1.7 ± 0.11 % of what added
Formaldehyde accumulation, Trypsin eluate, % of what added [3, 9]: 2.33 ± 0.34 % of what added
Formaldehyde accumulation, Cells, % of what added [3, 10]: 1.35 ± 0.09 % of what added
Formaldehyde accumulation, Trypsin eluate, % of what added [3, 10]: 1.77 ± 0.16 % of what added
Formaldehyde accumulation, Cells, % of what added [3, 11]: 0.53 ± 0.04 % of what added
Formaldehyde accumulation, Trypsin eluate, % of what added [3, 11]: 0.45 ± 0.03 % of what added
Formaldehyde accumulation, Cells, % of what added [3, 12]: 1.26 ± 0.11 % of what added
Formaldehyde accumulation, Trypsin eluate, % of what added [3, 12]: 1.73 ± 0.23 % of what added
Formaldehyde accumulation, Cells, % of what added [3, 13]: 3.11 ± 0.27 % of what added
Formaldehyde accumulation, Trypsin eluate, % of what added [3, 13]: 3.41 ± 0.44 % of what added
Formaldehyde accumulation, Cells, % of what added [3, 14]: 2.12 ± 0.33 % of what added
Formaldehyde accumulation, Trypsin eluate, % of what added [3, 14]: 5.16 ± 0.85 % of what added
Formaldehyde accumulation, Cells, % of what added [3, 15]: 1.73 ± 0.23 % of what added
Formaldehyde accumulation, Trypsin eluate, % of what added [3, 15]: 3.71 ± 0.45 % of what added
